Laboratory results taken from US9365576B2, “Pyrrolopyrrolidinone compounds” (Novartis AG, priority 2012, dated 2016).

Biological target: human MDM2 protein (amino acids 2-188) (Homo sapiens (Human), UniProt Q00987)
Assay: TR-FRET assay, p53-MDM2 Assay 2 (modified)
Assay type: binding
Details: TR-FRET; 0.1 nM MDM2, 0.1 nM Europium labeled streptavidin, Tecan genios Pro reader; read-out: IC50 p53-MDM2 Assay 2
Summary of the method: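 IC50 values were curve-fitted from the time-resolved 665/620 nm emission ratio after 340 nm excitation. The assay combined 0.625 nM europium-streptavidin donor with 1.25 nM C-terminally biotinylated MDM2 2–188 (15 min, RT), followed by 15 min with 10 nM Cy5-labeled p53 18–26 acceptor peptide.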

human MDM2 protein (amino acids 2-188), sequence (Q00987 2-188): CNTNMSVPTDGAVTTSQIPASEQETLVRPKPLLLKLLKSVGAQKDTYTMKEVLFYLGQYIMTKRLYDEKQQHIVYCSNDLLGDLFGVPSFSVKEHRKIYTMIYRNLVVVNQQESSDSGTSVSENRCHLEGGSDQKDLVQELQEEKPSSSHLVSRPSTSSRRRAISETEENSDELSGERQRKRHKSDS

IC50 | Compound
0.158 nM | COc1nc(N(C)C)ncc1-c1cc2c(n1C(C)C)C(c1ccc(Cl)cc1)N(c1c(F)c(C)nn1C)C2=O (stereo not shown) [Example 209, 6-(4-Chloro-phenyl)-2-(2-dimethylamino-4-methoxy-pyrimidin-5-yl)-5-(4-fluoro-2,5-dimethyl-2H-pyrazol-3-yl)-1-isopropyl-5,6-dihydro-1H-pyrrolo[3,4-b]pyrrol-4-one]
3.9 nM | COc1nc(N)ncc1-c1cc2c(n1C(C)C)C(c1ccc(Cl)cc1)N(c1c(F)c(C)nn1C)C2=O (stereo not shown) [Example 210, 2-(2-Amino-4-methoxy-pyrimidin-5-yl)-6-(4-chloro-phenyl)-5-(4-fluoro-2,5-dimethyl-2H-pyrazol-3-yl)-1-isopropyl-5,6-dihydro-1H-pyrrolo[3,4-b]pyrrol-4-one]
1.68 nM | COc1ncc(-c2cc3c(n2C(C)C)C(c2ccc(C#N)cc2)N(c2c(F)c(C)nn2C)C3=O)c(OC)n1 (stereo not shown) [Example 211, 4-[2-(2,4-Dimethoxy-pyrimidin-5-yl)-5-(4-fluoro-2,5-dimethyl-2H-pyrazol-3-yl)-1-isopropyl-4-oxo-1,4,5,6-tetrahydro-pyrrolo[3,4-b]pyrrol-6-yl]-benzonitrile]
0.769 nM | COc1nc(N(C)C)ncc1-c1cc2c(n1C(C)C)C(c1ccc(Cl)cc1F)N(c1cc(C)nn1C)C2=O (stereo not shown) [Example 212, 6-(4-Chloro-2-fluoro-phenyl)-2-(2-dimethylamino-4-methoxy-pyrimidin-5-yl)-5-(2,5-dimethyl-2H-pyrazol-3-yl)-1-isopropyl-5,6-dihydro-1H-pyrrolo[3,4-b]pyrrol-4-one]
14.2 nM | COc1ncc(-c2cc3c(n2C(C)C)C(c2ccc(Cl)cn2)N(c2cc(Cl)cn(C)c2=O)C3=O)c(OC)n1 (stereo not shown) [Example 213, 5-(5-Chloro-1-methyl-2-oxo-1,2-dihydro-pyridin-3-yl)-6-(5-chloro-pyridin-2-yl)-2-(2,4-dimethoxy-pyrimidin-5-yl)-1-isopropyl-5,6-dihydro-1H-pyrrolo[3,4-b]pyrrol-4-one]

More lines, now with the values behind:

Compound | IC50
COc1ncc(-c2cc3c(n2C(C)C)C(c2ccc(Cl)cc2)N(c2cc(Cl)c[nH]c2=O)C3=O)c(OC)n1 (stereo not shown) [Example 204, 5-(5-Chloro-2-oxo-1,2-dihydro-pyridin-3-yl)-6-(4-chloro-phenyl)-2-(2,4-dimethoxy-pyrimidin-5-yl)-1-isopropyl-5,6-dihydro-1H-pyrrolo[3,4-b]pyrrol-4-one] | 0.195 nM
COc1cn(C)c(=O)cc1-c1cc2c(n1C(C)C)C(c1ccc(Cl)cc1)N(c1cc(Cl)cnc1OC)C2=O (stereo not shown) [Example 205, 5-(5-Chloro-2-methoxy-pyridin-3-yl)-6-(4-chloro-phenyl)-1-isopropyl-2-(5-methoxy-1-methyl-2-oxo-1,2-dihydro-pyridin-4-yl)-5,6-dihydro-1H-pyrrolo[3,4-b]pyrrol-4-one] | 0.198 nM
COc1nc(N)ncc1-c1cc2c(n1C(C)C)C(c1ccc(Cl)cc1)N(c1cc(Cl)cnc1OC)C2=O (stereo not shown) [Example 206, 2-(2-Amino-4-methoxy-pyrimidin-5-yl)-5-(5-chloro-2-methoxy-pyridin-3-yl)-6-(4-chloro-phenyl)-1-isopropyl-5,6-dihydro-1H-pyrrolo[3,4-b]pyrrol-4-one] | 0.509 nM
COc1nc(N(C)C)ncc1-c1cc2c(n1C(C)C)C(c1ccc(C#N)cc1)N(c1cc(Cl)cnc1OC)C2=O (stereo not shown) [Example 207, 4-[5-[5-Chloro-2-methoxy-pyridin-3-yl)-2-(2-dimethylamino-4-methoxy-pyrimidin-5-yl)-1-isopropyl-4-oxo-1,4,5,6-tetrahydro-pyrrolo[3,4-b]pyrrol-6-yl]-benzonitrile] | 0.185 nM
COc1cn(C)c(=O)cc1-c1cc2c(n1C(C)C)C(c1ccc(Cl)cc1)N(c1c(F)c(C)nn1C)C2=O (stereo not shown) [Example 208, 6-(4-Chloro-phenyl)-5-(4-fluoro-2,5-dimethyl-2H-pyrazol-3-yl)-1-isopropyl-2-(5-methoxy-1-methyl-2-oxo-1,2-dihydro-pyridin-4-yl)-5,6-dihydro-1H-pyrrolo[3,4-b]pyrrol-4-one] | 0.861 nM
